# US20020187514A1 (priority 1999, published 2002)
# pKi: −log10 of the molar value.
# Experiments:
# [1] = test system: Thyrotropin Releasing Hormone, TRH; experiment: Thyrotropin Releasing Hormone, TRH; [3H]-(3MeHis2)TRH; type: binding; conditions: 10^−5 M
# Neuropeptide, NPY1 = Neuropeptide, NPY1 (Homo sapiens, UniProt P25929); experiment: Neuropeptide, NPY1 (Human); [125I]PYY; type: binding; conditions: read-out: Pass 1 (10^−5 M) % Inhibition
# Adenosine Transporter = Adenosine Transporter (Homo sapiens, UniProt Q99808); experiment: biochemical; type: binding; conditions: read-out: Pass 1 (10^−5 M) % Inhibition
# Chain of Adenosine Transporter (Q99808 whole entry): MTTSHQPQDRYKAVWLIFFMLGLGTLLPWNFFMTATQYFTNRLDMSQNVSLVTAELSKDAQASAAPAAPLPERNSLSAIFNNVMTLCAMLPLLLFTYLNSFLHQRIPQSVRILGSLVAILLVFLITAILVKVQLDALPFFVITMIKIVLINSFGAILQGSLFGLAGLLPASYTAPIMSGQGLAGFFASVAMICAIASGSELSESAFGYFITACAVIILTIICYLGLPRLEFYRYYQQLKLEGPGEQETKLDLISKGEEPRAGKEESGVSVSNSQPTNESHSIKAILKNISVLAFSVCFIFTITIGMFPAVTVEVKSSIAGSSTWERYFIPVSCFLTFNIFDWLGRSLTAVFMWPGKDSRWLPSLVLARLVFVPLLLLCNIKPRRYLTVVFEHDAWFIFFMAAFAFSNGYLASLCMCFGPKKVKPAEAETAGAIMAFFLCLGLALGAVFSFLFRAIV
# [2] = target: T1, Platelet Activating Factor, PAF (Oryctolagus cuniculus, UniProt G1TEI7); experiment: Platelet Activating Factor, PAF; [3H]Hexadecyl, PAF; type: binding; conditions: read-out: Pass 1 (10^−5 M) % Inhibition
# T1 construct: no other source notation after assay name denotes animal cell or animal tissue source; from tissue
# T1 sequence (G1TEI7 entry or part of it): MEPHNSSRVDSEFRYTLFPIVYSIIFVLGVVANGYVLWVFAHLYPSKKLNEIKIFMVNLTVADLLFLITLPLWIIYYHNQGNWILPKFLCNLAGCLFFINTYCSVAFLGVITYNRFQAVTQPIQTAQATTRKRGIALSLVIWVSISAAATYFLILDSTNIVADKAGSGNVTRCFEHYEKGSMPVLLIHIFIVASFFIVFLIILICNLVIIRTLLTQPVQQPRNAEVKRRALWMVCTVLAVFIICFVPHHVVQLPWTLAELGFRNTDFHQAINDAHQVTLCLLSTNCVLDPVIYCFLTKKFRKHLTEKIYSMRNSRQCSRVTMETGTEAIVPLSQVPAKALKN
# [3] = test system: Adenosine Transport (cs + es); experiment: Adenosine Transport (cs + es) (Human); [3H]-Adenosine; type: biochemical; conditions: 10^−5 M
# Angiotensin II, AT2 = type: binding; conditions: 10^−5 M
# Opiate, Delta 1 = Opiate, Delta 1 (UniProt P33533); type: binding
# [4] = test system: Glutamic Acid Decarboxylase; experiment: Glutamic Acid Decarboxylase; substrate [14C]Glutamic acid; type: biochemical; conditions: 10^−5 M
# Opiate, Mu = target: T2, Opiate, Mu (Homo sapiens, UniProt P35372); experiment: biochemical; type: binding; conditions: read-out: Pass 1 (10^−5 M) % Inhibition
# T2 construct: expressed in transfected cells
# Serotonin, 5HT2C = Serotonin, 5HT2C (UniProt K7GSR7); type: binding
# [5] = test system: Potassium Channel, Ca2+ Act., VI; experiment: Potassium Channel, Ca2+ Act., VI; [125I]Apamin; type: binding; conditions: 10^−5 M
# [6] = test system: Atrial Natriuretic Peptide, ANP A; experiment: Atrial Natriuretic Peptide, ANP A; [125I]ANP (Rat); type: binding
# Orphanin = target: T3, Orphanin (Homo sapiens, UniProt P41146); experiment: biochemical; type: binding; conditions: read-out: Pass 1 (10^−5 M) % Inhibition
# T3 construct: expressed in transfected cells
# T3 sequence (P41146 whole entry): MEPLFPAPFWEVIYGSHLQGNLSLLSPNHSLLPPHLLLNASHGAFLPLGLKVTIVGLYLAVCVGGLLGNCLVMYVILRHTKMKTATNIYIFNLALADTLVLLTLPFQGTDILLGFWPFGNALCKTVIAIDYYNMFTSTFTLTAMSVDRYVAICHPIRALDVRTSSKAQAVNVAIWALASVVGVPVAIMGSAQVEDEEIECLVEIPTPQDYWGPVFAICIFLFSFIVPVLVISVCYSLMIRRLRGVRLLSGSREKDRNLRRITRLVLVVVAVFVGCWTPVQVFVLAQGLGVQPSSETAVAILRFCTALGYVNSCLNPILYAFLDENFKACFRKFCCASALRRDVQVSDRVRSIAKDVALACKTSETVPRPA
# GABA Transaminase = experiment: GABA Transaminase; substrate [14C]-GABA; type: biochemical
# [7] = test system: Epidermal Growth Factor, EGF; experiment: Epidermal Growth Factor, EGF; [125I]EGF; type: binding; conditions: 10^−5 M
# Adrenergic, Beta 2 = Adrenergic, Beta 2 (Homo sapiens, UniProt P07550); experiment: biochemical; type: binding; conditions: read-out: Pass 1 (10^−5 M) % Inhibition
# Chain of Adrenergic, Beta 2 (P07550 whole entry): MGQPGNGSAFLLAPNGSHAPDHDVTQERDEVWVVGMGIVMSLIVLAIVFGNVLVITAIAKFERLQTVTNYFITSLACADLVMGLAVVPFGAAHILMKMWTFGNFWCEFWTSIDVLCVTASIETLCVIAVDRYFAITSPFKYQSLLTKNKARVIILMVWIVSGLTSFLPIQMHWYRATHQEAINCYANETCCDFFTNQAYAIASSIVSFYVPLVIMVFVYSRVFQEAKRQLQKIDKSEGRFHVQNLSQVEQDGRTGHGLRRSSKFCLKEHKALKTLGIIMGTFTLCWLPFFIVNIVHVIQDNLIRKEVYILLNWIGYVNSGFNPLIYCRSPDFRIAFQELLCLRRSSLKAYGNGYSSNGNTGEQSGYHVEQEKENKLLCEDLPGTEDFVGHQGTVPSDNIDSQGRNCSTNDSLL
# Glutamate Transport = experiment: Glutamate Transport; [3H]Glutamic Acid; type: biochemical; conditions: 10^−5 M
# Adenosine, A1 = Adenosine, A1 (UniProt P25099); experiment: Adenosine, A1; [3H]CPX; type: binding; conditions: 10^−5 M
# Chain of Adenosine, A1 (P25099 whole entry, looked up): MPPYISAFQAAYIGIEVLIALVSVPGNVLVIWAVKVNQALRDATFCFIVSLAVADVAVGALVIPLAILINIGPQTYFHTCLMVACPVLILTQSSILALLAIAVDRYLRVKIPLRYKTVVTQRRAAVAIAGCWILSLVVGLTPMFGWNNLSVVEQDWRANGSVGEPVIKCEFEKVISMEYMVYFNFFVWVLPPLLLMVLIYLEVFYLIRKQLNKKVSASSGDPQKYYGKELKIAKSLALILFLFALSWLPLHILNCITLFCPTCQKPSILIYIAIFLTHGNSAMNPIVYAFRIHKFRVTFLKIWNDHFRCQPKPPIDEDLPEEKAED
# Muscarinic, M2 = Muscarinic, M2 (Homo sapiens, UniProt P08172); experiment: biochemical; conditions: read-out: Pass 1 (10^−5 M) % Inhibition
# Chain of Muscarinic, M2 (P08172 whole entry): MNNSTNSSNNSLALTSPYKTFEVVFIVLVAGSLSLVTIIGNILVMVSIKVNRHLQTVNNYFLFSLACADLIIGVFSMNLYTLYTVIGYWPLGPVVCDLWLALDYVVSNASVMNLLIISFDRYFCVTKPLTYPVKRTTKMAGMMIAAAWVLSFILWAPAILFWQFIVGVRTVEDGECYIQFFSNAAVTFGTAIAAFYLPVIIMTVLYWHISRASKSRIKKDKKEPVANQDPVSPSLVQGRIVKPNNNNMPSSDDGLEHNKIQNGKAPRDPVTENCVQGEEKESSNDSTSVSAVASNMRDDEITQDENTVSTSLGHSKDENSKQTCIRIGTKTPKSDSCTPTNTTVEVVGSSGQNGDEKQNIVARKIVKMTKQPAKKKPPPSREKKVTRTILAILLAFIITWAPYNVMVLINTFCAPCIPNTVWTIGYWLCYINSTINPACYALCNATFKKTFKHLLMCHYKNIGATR
# [8] = test system: Glutamate, Chloride Dependent Site; experiment: Glutamate, Chloride Dependent Site; [3H]Glutamic Acid; type: binding; conditions: 10^−5 M
# Dopamine, D4.4 = target: T4, Dopamine, D4.4 (Homo sapiens, UniProt P21917); experiment: biochemical; type: binding; conditions: read-out: Pass 1 (10^−5 M) % Inhibition
# T4 construct: expressed in transfected cells
# T4 sequence (P21917 whole entry): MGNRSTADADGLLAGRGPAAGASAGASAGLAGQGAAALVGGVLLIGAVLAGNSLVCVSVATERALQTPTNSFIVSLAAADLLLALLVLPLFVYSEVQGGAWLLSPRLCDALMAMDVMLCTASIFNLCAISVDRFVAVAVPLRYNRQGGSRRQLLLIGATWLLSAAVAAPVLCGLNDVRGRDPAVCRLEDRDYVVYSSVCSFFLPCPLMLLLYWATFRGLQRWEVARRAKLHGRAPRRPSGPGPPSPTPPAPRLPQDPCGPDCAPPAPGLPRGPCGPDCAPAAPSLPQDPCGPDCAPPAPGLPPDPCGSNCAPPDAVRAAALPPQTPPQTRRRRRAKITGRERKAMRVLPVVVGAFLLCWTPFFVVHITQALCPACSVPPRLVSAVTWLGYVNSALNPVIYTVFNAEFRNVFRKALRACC
# [9] = test system: Cholecystokinin, CCK1 (CCKA); experiment: Cholecystokinin, CCK1 (CCKA); [125I]CCK-8; type: binding; conditions: 10^−5 M
# Thromboxane A2 = target: T5, Thromboxane A2 (Homo sapiens, UniProt P21731); experiment: Thromboxane A2 (Human); [3H]SQ 29,548; type: binding; conditions: read-out: Pass 1 (10^−5 M) % Inhibition
# T5 construct: from human cell lines; endogenous in cells
# [10] = target: T6, Monoamine Oxidase B, Peripheral (Rattus norvegicus, UniProt P19643); experiment: Monoamine Oxidase B, Peripheral; substrate [14C]Phenylethylamine; type: biochemical; conditions: read-out: Pass 1 (10^−5 M) % Inhibition
# T6 construct: no other source notation after assay name denotes animal cell or animal tissue source; from tissue
# T6 sequence (P19643 whole entry): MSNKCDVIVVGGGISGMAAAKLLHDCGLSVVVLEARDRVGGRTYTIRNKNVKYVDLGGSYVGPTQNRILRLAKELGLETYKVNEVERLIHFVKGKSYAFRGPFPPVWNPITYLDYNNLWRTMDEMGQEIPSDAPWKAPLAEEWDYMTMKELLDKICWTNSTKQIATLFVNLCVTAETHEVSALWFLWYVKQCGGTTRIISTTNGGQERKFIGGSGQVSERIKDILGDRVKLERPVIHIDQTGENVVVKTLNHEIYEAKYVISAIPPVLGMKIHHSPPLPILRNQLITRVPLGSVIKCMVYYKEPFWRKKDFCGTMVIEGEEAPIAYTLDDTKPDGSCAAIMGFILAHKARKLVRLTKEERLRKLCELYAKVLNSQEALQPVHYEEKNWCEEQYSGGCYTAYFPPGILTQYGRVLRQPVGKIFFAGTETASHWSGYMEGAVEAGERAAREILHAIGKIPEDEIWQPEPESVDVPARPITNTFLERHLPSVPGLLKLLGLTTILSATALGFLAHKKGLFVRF
# Leukotrine B4, LTB4 = experiment: Leukotrine B4, LTB4; [3H]LTB4; type: binding; conditions: 10^−5 M
# Serotonin, 5HT1A = Serotonin, 5HT1A (Homo sapiens, UniProt P08908); experiment: biochemical; type: binding; conditions: read-out: Pass 1 (10^−5 M) % Inhibition
# Chain of Serotonin, 5HT1A (P08908 whole entry): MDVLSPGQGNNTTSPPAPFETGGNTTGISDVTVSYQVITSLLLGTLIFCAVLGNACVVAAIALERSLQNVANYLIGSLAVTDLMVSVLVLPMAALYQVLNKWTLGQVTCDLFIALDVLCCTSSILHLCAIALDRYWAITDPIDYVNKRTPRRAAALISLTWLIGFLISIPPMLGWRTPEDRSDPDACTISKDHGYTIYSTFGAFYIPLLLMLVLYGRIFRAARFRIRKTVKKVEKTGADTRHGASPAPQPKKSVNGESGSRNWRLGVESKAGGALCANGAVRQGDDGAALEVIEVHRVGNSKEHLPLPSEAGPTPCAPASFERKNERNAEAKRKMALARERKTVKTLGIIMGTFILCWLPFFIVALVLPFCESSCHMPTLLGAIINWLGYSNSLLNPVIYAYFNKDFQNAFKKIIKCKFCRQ
# Serotonin, 5HT1D = Serotonin, 5HT1D (Homo sapiens, UniProt P28221); experiment: biochemical; type: binding; conditions: read-out: Pass 1 (10^−5 M) % Inhibition
# [11] = test system: Protein Tyrosine Phosphatase, PTP-Cell; experiment: Protein Tyrosine Phosphatase, PTP-Cell (Human); substrate pNPP; type: biochemical; conditions: 10^−5 M
# Acetylcholinesterase = experiment: Acetylcholinesterase; substrate Acetylthiocholine; type: biochemical
# Opiate, Kappa 1 = Opiate, Kappa 1 (UniProt P41144); type: binding
# Adrenergic, Alpha 2C = target: T7, Adrenergic, Alpha 2C (Homo sapiens, UniProt P18825); experiment: Adrenergic, Alpha 2C (Human Recombinant); [3H]MK-912; type: binding; conditions: read-out: Pass 1 (10^−5 M) % Inhibition
# T7 construct: expressed in transfected cells
# Purinergic, P2Y = Purinergic, P2Y (Human); [35S]-ATPas; type: binding; conditions: 10^−5 M
# Neurokinin, NK1 = type: binding; conditions: 10^−5 M
# Elastase = target: T8, Elastase (Homo sapiens, UniProt P08246); experiment: Elastase (Human); substrate MeO-Suc-Ala-Ala-Pro-Val-pNA; type: biochemical; conditions: read-out: Pass 1 (10^−5 M) % Inhibition
# T8 construct: from human cell lines; endogenous in cells
# Vasopressin 1 = target: T9, Vasopressin 1 (Rattus norvegicus, UniProt P30560); experiment: biochemical; type: binding; conditions: read-out: Pass 1 (10^−5 M) % Inhibition
# T9 construct: no other source notation after assay name denotes animal cell or animal tissue source; from tissue
# Adrenergic, Alpha 1A = Adrenergic, Alpha 1A (UniProt P43140); experiment: Adrenergic, Alpha 1A; [3H]-7-MeOxy-Prazosin; type: binding
# Dopamine Transporter = Dopamine Transporter (Cavia porcellus, UniProt H0WCX4); experiment: biochemical; type: binding, Guinea Pig
# Chain of Dopamine Transporter (H0WCX4 1-619): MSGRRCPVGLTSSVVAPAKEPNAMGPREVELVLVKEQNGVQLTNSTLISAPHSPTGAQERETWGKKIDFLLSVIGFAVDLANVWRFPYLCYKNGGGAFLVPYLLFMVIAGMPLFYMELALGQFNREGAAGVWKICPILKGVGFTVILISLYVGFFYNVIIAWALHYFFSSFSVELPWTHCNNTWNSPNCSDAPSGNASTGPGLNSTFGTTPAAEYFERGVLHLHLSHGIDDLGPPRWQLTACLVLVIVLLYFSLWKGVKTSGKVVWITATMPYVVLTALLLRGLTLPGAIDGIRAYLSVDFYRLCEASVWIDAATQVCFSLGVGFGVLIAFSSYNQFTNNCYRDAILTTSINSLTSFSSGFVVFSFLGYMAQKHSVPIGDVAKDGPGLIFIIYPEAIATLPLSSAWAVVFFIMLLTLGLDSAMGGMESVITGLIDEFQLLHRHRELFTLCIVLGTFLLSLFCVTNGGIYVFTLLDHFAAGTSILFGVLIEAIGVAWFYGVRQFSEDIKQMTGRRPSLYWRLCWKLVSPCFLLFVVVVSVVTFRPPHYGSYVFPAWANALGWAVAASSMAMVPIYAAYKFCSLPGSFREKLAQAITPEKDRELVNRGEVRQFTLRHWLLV
# Glutamate, AMPA Site = experiment: Glutamate, AMPA Site; [3H]AMPA; type: binding; conditions: 10^−5 M
# Opiate, Kappa = target: T10, Opiate, Kappa (Homo sapiens, UniProt P41145); experiment: biochemical; type: binding; conditions: read-out: Pass 1 (10^−5 M) % Inhibition
# T10 construct: expressed in transfected cells
# T10 sequence (P41145 whole entry): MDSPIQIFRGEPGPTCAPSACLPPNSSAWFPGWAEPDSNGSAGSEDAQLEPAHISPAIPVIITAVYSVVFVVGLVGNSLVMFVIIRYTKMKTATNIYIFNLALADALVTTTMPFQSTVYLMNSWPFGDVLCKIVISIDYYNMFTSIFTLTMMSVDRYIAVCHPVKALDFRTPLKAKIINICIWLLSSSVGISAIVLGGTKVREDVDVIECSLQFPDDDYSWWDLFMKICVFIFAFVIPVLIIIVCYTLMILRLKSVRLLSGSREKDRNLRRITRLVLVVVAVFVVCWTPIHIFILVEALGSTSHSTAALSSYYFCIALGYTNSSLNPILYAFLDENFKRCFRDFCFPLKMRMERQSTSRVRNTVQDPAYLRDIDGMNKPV
# [12] = reported in vivo pharmacology, cited from earlier work
# [13] = target: Norepinephrine Transporter (Rattus norvegicus, UniProt Q9WTR4); experiment: biochemical; type: binding; conditions: read-out: Pass 1 (10^−5 M) % Inhibition
# [14] = test system: Protein Tyrosine Phosphatase, PTP-B; experiment: Protein Tyrosine Phosphatase, PTP-B (Human); substrate pNPP; type: biochemical; conditions: 10^−5 M; footnote: not confirmed in QA/QC follow-up
compound,measurement,setting,value
COC(=O)[C@H]1[C@@H](OC(=O)c2ccccc2)C[C@@H]2CC[C@H]1N2C [cocaine],Pass 1 (10^−5 M) % Inhibition,[1],−11.95%
same,inhibition at 10 µM,"Neuropeptide, NPY1",26.6%
same,inhibition at 10 µM,Adenosine Transporter,16.5%
same,inhibition at 10 µM,[2],12.6%
same,Pass 1 (10^−5 M) % Inhibition,[3],2.79%
same,Pass 1 (10^−5 M) % Inhibition,"Angiotensin II, AT2",5.85%
same,Pass 1 (10^−5 M) % Inhibition,"Opiate, Delta 1",2.51%
same,Pass 1 (10^−5 M) % Inhibition,[4],−1.39%
same,inhibition at 10 µM,"Opiate, Mu",3.08%
same,Pass 1 (10^−5 M) % Inhibition,"Serotonin, 5HT2C",1.44%
same,Pass 1 (10^−5 M) % Inhibition,[5],11.04%
same,Pass 1 (10^−5 M) % Inhibition,[6],11.36%
same,inhibition at 10 µM,Orphanin,32.3%
same,Pass 1 (10^−5 M) % Inhibition,GABA Transaminase,25.43%
same,Pass 1 (10^−5 M) % Inhibition,[7],10.05%
same,inhibition at 10 µM,"Adrenergic, Beta 2",-15.6%
same,Pass 1 (10^−5 M) % Inhibition,Glutamate Transport,24.20%
same,Pass 1 (10^−5 M) % Inhibition,"Adenosine, A1",2.29%
same,inhibition at 10 µM,"Muscarinic, M2",3.57%
same,Pass 1 (10^−5 M) % Inhibition,[8],5.36%
same,inhibition at 10 µM,"Dopamine, D4.4",18.8%
same,Pass 1 (10^−5 M) % Inhibition,[9],11.15%
same,inhibition at 10 µM,Thromboxane A2,22.1%
same,inhibition at 10 µM,[10],-22.8%
same,Pass 1 (10^−5 M) % Inhibition,"Leukotrine B4, LTB4",17.06%
same,inhibition at 10 µM,"Serotonin, 5HT1A",7.63%
same,inhibition at 10 µM,"Serotonin, 5HT1D",3.12%
same,Pass 1 (10^−5 M) % Inhibition,[11],−17.63%
same,Pass 1 (10^−5 M) % Inhibition,Acetylcholinesterase,8.18%
same,Pass 1 (10^−5 M) % Inhibition,"Opiate, Kappa 1",10.19%
same,inhibition at 10 µM,"Adrenergic, Alpha 2C",-5.94%
same,Pass 1 (10^−5 M) % Inhibition,"Purinergic, P2Y",16.43%
same,Pass 1 (10^−5 M) % Inhibition,"Neurokinin, NK1",−1.72%
same,inhibition at 10 µM,Elastase,-11.2%
same,inhibition at 10 µM,Vasopressin 1,0.98%
same,Pass 1 (10^−5 M) % Inhibition,"Adrenergic, Alpha 1A",−1.18%
same,pKi,Dopamine Transporter,6.49
same,inhibition at 10 µM,Dopamine Transporter; read-out: Pass 1 (10^−5 M) % Inhibition,91.4%
same,Pass 1 (10^−5 M) % Inhibition,"Glutamate, AMPA Site",−9.30%
same,inhibition at 10 µM,"Opiate, Kappa",1.87%
same,effects of high dosages,[12]; high dosages,"euphoria, involuntary motor activity, stereotypic behavior, paranoia, and irritability and increased risk of violence"
same,effect on heart rate and blood pressure,[12],dosage dependent increase in heart rate and blood pressure
same,inhibition at 10 µM,[13],60%
same,Pass 1 (10^−5 M) % Inhibition,[14],65.03%
